Measurements from article PMC9321231.

Columns and labels:
[1] = tested on: lung carcinoma (A549) cells; experiment: Antiproliferative assay (MTT or SRB), A549; format: cell-based, human; settings: for IC50: Homo sapiens, A549, A-549, read-out: IC50 ± SD, antiproliferative activity; for Calculated Selectivity Index SI: IC50 Balb/3T3 / IC50 A-549
Protocol: (§1) Cell preparation, an in vitro antiproliferative assay, and MTT and SRB cytotoxic tests were performed according to the literature.

A549 cells [2] = experiment: Apoptosis/necrosis assay, Annexin V-FITC/PI flow cytometry; format: cell-based, human; settings: for percentage of A549 cells undergoing apoptosis: 48 h, control 6.05 ± 0.17%; for induction of necrosis: A549, 48 h
Protocol: (§2) The rate of cell apoptosis and necrosis was detected using Annexin V-FITC/PI double staining. […] Compound 3e turned out to be a stronger inducer of apoptosis than 3c. […] In turn, compound 3c induced apoptosis only at the concentrations of 10 and 20 µM, and the percentage of cells undergoing apoptosis increased from 6.05 ± 0.17% in the control to 10.14 ± 0.76% and 14.67 ± 0.68%, respectively (Figure 4B). Moreover, compound 3e at a concentration of 5 µM induced apoptosis to a similar level as cisplatin (CDDP) used at a concentration of 4 µM. To identify the mechanism of the 3c- and 3e-induced apoptosis in the A549 cells, the activation of effector caspase-3 was evaluated by flow cytometry. […] To further explore the antiproliferative activity of compounds 3c and 3e, the influence of both compounds on the distribution of cell cycle phases in the A549 cells was analyzed. […] The G2 checkpoint prevents cells from entering mitosis when DNA is damaged, providing an opportunity for repair and stopping the proliferation of damaged cells. […] Apoptosis is a crucial process involved in the regulation of tumor formation and in the treatment response; therefore, cancer therapy has been linked to activation of the apoptosis signal transduction pathway. Caspase-3, an executioner caspase, plays an important role in apoptosis and becomes a primary target for cancer treatment.
(§3) The fluorescence-activated cell sorting (FACS) technique was employed to analyze the 3c- and 3e-induced cell death, the activation of executive caspase-3, and the cell cycle in the A549 cells. The quantitative analysis of apoptosis and necrosis was performed using an Annexin V-fluorescein isothiocyanate (FITC)/ propidium iodide (PI) apoptosis kit (BD Biosciences, BD Pharmingen™, San Jose, CA, USA) as previously described. To determine the active form of caspase-3, the A549 cells were plated into 6-well plates at a density of 6 × 10^5 cells/well. The next day, the growth medium was replaced with a fresh one supplemented with compound 3c or 3e (10, 20, and 40 µM) or the DMSO vehicle (0.1%; control cells). After 48-h incubation, the samples were harvested and the level of active caspase-3 was determined using the phycoerythrin (PE) Active Caspase-3 Apoptosis Kit (BD Pharmingen™) according to the manufacturer’s instructions. The stained cells were analyzed using FACS Calibur, and data were analyzed using Cell Quest Pro Version 6.0 (BD Biosciences, San Jose, CA, USA) for the Macintosh operating system. The results were calculated as a percent of cells with active caspase-3 among all the analyzed cells. The cell cycle analysis was performed by determination of the DNA contents on the basis of PI staining as previously described.
Figure 4 Effect of compounds 3c and 3e and cisplatin (CDDP) on apoptosis induction in the A549 cell line. After the 48-h exposure to the indicated concentrations of the compounds, the cells were stained with annexin (An) V-FITC)/propidium iodide (PI) and examined with flow cytometry. (A) The representative graphs obtained by flow cytometric analysis: dot plots indicate the percentage of An−/PI+ necrotic cells (Q1), An+ /PI+ late apoptotic cells (Q2), An−/PI− viable cells (Q3), and An+ /PI− early apoptotic cells (Q4). (B) Statistical analysis of the apoptotic (early + late apoptosis) and necrotic rate populations after the 3c, 3e, and cisplatin (CDDP) treatment. Data are presented as mean ± SD from three independent experiments; *** p < 0.001 in comparison to the control; one-way ANOVA followed by Dunnett’s post hoc test.

A549 cells [3] = experiment: Cell cycle analysis, PI staining flow cytometry; format: cell-based, human; settings: 48 h, control 6.20 ± 0.23%
Protocol: as §2, §3
Figure 6 Effect of compounds 3c and 3e on cell cycle distribution in A549 cells. After the treatment with the indicated concentrations of compounds 3c and 3e for 48 h, the cells were stained with propidium iodide and analyzed by flow cytometry. (A) Representative DNA histograms of A549 cells treated with compounds 3c and 3e. (B,C) Statistical analysis of the percentages of A549 cells in the sub-G1, G0/G1, S, and G2/M phases after treatment with compounds 3c and 3e, respectively. Data are expressed as means ± SD from three independent experiments. ** p < 0.01 and *** p < 0.001 in comparison to the control; one-way ANOVA followed by Tukey’s post hoc test.

[4] = tested on: human biphenotypic B myelomonocytic leukemia (MV4-11) cells; experiment: Antiproliferative assay (MTT or SRB), MV4-11; format: cell-based; settings: for IC50: Homo sapiens, MV4-11, MV-4-11, read-out: IC50 ± SD, antiproliferative activity; for Calculated Selectivity Index SI: IC50 Balb/3T3 / IC50 MV-4-11
Protocol: as §1

[5] = tested on: urinary bladder carcinoma (UMUC-3) cells; experiment: Antiproliferative assay (MTT or SRB), UMUC-3; format: cell-based, human; settings: for IC50: Homo sapiens, UMUC3, UMUC-3, read-out: IC50 ± SD, antiproliferative activity; for Calculated Selectivity Index SI: IC50 Balb/3T3 / IC50 UMUC-3
Protocol: as §1

| IC50 [1] | IC50 [4] | IC50 [5] | Structure (SMILES) | Calculated Selectivity Index SI [1] | percentage of A549 cells undergoing apoptosis (A549 cells [2]; 10 µM) | percentage of A549 cells undergoing apoptosis (A549 cells [2]; 20 µM) | induction of necrosis (A549 cells [2]) | G2/M fraction of A549 cells (A549 cells [3]; 5 µM) | G2/M fraction of A549 cells (A549 cells [3]; 10 µM) | G2/M fraction of A549 cells (A549 cells [3]; 20 µM) | Calculated Selectivity Index SI [4] | Calculated Selectivity Index SI [5] | percentage of A549 cells undergoing apoptosis (A549 cells [2]; 5 µM) |
| --- | --- | --- | --- | --- | --- | --- | --- | --- | --- | --- | --- | --- | --- |
| 6.4 ± 0.08 µM | 4.59 ± 2.03 µM | 6.9 ± 0.21 µM | CCC1(CC)C(=O)N(c2ccc(-c3csc(Nc4cc(OC)c(OC)c(OC)c4)n3)cc2)C1=O [3c, 3,3-Diethyl-1-(4-(2-(3,4,5-trimethoxyphenylamino)thiazol-4-yl)phenyl)azetidine-2,4-dione] | 1.16 | 10.14 ± 0.76% | 14.67 ± 0.68% | no induction of necrosis was observed | 9.69 ± 0.77% | 15.68 ± 5.31% | 29.04 ± 1.09% | 1.62 | 1.07 | – |
| 6.32 ± 0.89 µM | 6.23 ± 0.42 µM | 7.49 ± 0.64 µM | CCC1(CC)C(=O)N(c2ccc(-c3csc(Nc4ccc(S(N)(=O)=O)cc4)n3)cc2)C1=O [3e, 4-(4-(4-(3,3-Diethyl-2,4-dioxoazetidin-1-yl)phenyl)thiazol-2-ylamino)benzenesulfo-namide] | 1.04 | 14.45 ± 1.02% | 23.39 ± 0.31% | no induction of necrosis was observed | 9.08 ± 0.69% | 10.83 ± 1.06% | 35.78 ± 0.46% | 1.05 | 0.88 | 8.79 ± 0.50% |
